Patent US8648063B2, “Potentiation of cancer chemotherapy by 7-(2, 5-dihydro-4-imidazo [1, 2-a] pyridine-3-yl-2,5-dioxo-1H-pyrrol-3-yl)-9-fluoro-1,2,3,4 tetrahydro -2-(1-piperidinyl-carbonyl)-pyrrolo [3,2,1-jk] [1,4] benzodiazepine” (Eli Lilly and Company, priority 2007, dated 2014)

Key:
HCT-116 = experiment: Caspase-3/7 apoptosis assay (Apo-ONE) in HCT-116; assay type: cell-based, human; conditions: 48 hrs
Source text: (§1) Apoptosis or programmed cell death is characterized by a set of biochemical reactions, one of which is the induction of caspases. Activated caspases are proteases that participate in a cascade of cleavage events that disable key enzymes responsible for cell homeostasis and repair. Caspases 3 and 7 play key effector roles in apoptosis and can be detected and measured by a fluorescent biochemical assay. The increase of Caspase-3/7 activity in cells is directly correlated to apoptotic activity. (D. W. Nicholson, et al., Nature, 376, 37-43 (1995)) The Promega Apo-ONE Homogeneous Caspase-3/7 Assay Kit was used (Catalog #G7791). The assay buffer consists of 30 mM HEPES (N-(2-hydroxyethyl)piperazine-M-(2-ethanesulfonic acid) pH 7.4, 150 mM NaCl, 50 mM KCl, 10 mM MgCl2, 0.4 mM EGTA (ethylene glycol tetraacetic acid), 0.5% Nonidet P40 (octylphenolpoly(ethyleneglycol ether)), 0.1% CHAPS (3-[(3-Cholamidopropyl)dimeth-ylammonio]-1-propanesulfonate hydrate and 10% sucrose, which lyses/permeabilizes cultured cells and a caspase 3/7 substrate, Z-DEVD (Z-Asp(OMe)-Glu(OMe)-Val-Asp(OMe)), coupled to a profluorescent rhodamine 110. When the buffer-substrate mixture is added to a test sample, the cleavage and subsequent removal of the DEVD peptides by caspase 3/7 activity results in intense fluorescence of the rhodamine 110 leaving group, which is detected by excitation at 499 nm. The amount of fluorescent product is proportional to the amount of caspase 3/7 cleavage activity in the sample.
(§2) To measure the apoptotic effect of test compounds, tumor cells are plated at 1×10^4 cells per well in 96 well plates and incubated overnight at 37° C., with 5% CO2. Tumor cells are treated with test compound at desired concentrations in triplicate, including untreated/negative control wells. The assay plates are re-incubated for 48 hrs. At the end of the incubation period, a mixture of the assay buffer and substrate is added to each sample well. The fluorescence in each well is measured at an excitation wavelength of 485+/−20 nm and an emission wavelength of 530+/−25 nm. The % increase of caspase activity in treated cells is calculated relative to untreated controls.
(§3) The data in Tables 1-12 are expressed as % increase of caspase activity relative to untreated controls unless otherwise noted.

NCI-H460 = experiment: Caspase-3/7 apoptosis assay (Apo-ONE) in NCI-H460; assay type: cell-based, human; conditions: 48 hrs
Source text: as §1, §2, §3

A2780 = experiment: Caspase-3/7 apoptosis assay (Apo-ONE) in A2780; assay type: cell-based, human
Source text: as §1
as §2, with “The assay plates are re-incubated for 48 hrs.” left out
as §3

Calu-6 = experiment: Caspase-3/7 apoptosis assay (Apo-ONE) in Calu-6; assay type: cell-based; conditions: 48 hrs
Source text: as §1, §2, §3

Colo-205 = experiment: Caspase-3/7 apoptosis assay (Apo-ONE) in Colo-205; assay type: cell-based, human; conditions: 48 hrs
Source text: as §1, §2, §3

A549 = experiment: Caspase-3/7 apoptosis assay (Apo-ONE) in A549; assay type: cell-based; conditions: Compound I 300 nM, 48 hrs
Source text: as §1, §2, §3

AGS = experiment: Caspase-3/7 apoptosis assay (Apo-ONE) in AGS; assay type: cell-based; conditions: Cmpd I 900 nM
Source text: as §1
as §2, with “The assay plates are re-incubated for 48 hrs.” left out
as §3

KATO III = experiment: Caspase-3/7 apoptosis assay (Apo-ONE) in KATO III; assay type: cell-based; conditions: Cmpd I 600 nM, Cisplatin 10 μM, 48 hrs
Source text: as §1, with “The amount of fluorescent product is proportional to the amount of caspase 3/7 cleavage activity in the sample.” left out

MKN 45 = experiment: Caspase-3/7 apoptosis assay (Apo-ONE) in MKN 45; assay type: cell-based
Source text: as §1
as §2, with “The assay plates are re-incubated for 48 hrs.” left out
as §3

[1] = system: A2780 human ovarian carcinoma xenografts; experiment: Tumor growth delay, A2780 xenografts; assay type: in vivo, CD-1 nu/nu mice; conditions: cisplatin 5 mg/kg IP, Compound I 5 mg/kg IV, alone or combined, 3 cycles separated by 7 days, time to 1000 mm^3 vs control
Procedure: (§4) Cultured cells are implanted subcutaneously in the rear flank of female CD-1 nu/nu strain mice which have been acclimated for one week in the animal facility after receipt from the vendor. Mice are randomized into groups of 7 or 8 mice per group and treatment begun when the mean tumor volume reaches ˜100 mm^3 Compound I is dosed IV and the chemotherapeutic agent is given IP. When the agents are given in combination, the chemotherapeutic agent is dosed 60 minutes prior to Compound I. The tumors are measured 2 times per week by electronic calipers to plot growth curves. Tumor growth delay is the increase in median time it takes for a tumor to reach 1000 mm^3 in volume when compared to a control group. Animals are also monitored for fluctuations in body weight and survival.

[2] = system: HCT-116 human colorectal carcinoma xenografts; experiment: Tumor growth delay, HCT-116 xenografts; assay type: in vivo, CD-1 nu/nu mice; conditions: cisplatin 10 mg/kg IP, Compound I 5 mg/kg IV, alone or combined, 3 cycles separated by 7 days, time to 1000 mm^3 vs control
Procedure: as §4

[3] = system: Colo-205 human colorectal carcinoma xenografts; experiment: Tumor growth delay, Colo-205 xenografts; assay type: in vivo, CD-1 nu/nu mice; conditions: cisplatin 5 mg/kg IP, Compound I 5 mg/kg IV, alone or combined, 3 cycles separated by 7 days, time to 1000 mm^3 vs control
Procedure: as §4

SKOV3 = experiment: Caspase-3/7 apoptosis assay (Apo-ONE) in SKOV3; assay type: cell-based; conditions: Cmpd I 300 nM, Doxorubicin 1 μM, 48 hrs
Source text: as §1, with “The amount of fluorescent product is proportional to the amount of caspase 3/7 cleavage activity in the sample.” left out

[4] = system: NCI-H460 human non-small cell lung cancer xenografts; experiment: Tumor growth delay, NCI-H460 xenografts; assay type: in vivo, CD-1 nu/nu mice; conditions: Compound I 5 mg/kg IV, time to 1000 mm^3 vs control
Procedure: as §4

[5] = Cmpd I 60 nM, Gemcitabine 30 nM
[6] = NCI H-460, Cmpd I 300 nM, Gemcitabine 50 nM
[7] = Compound I 30 nM, pemetrexed 60 nM
[8] = Compound I 30 nM, pemetrexed 60 nM, 48 hrs
[9] = NCI H-460, Cmpd I 300 nM, Pemetrexed 500 nM
[10] = Calu-6, Compound I 30 nM, pemetrexed 60 nM
[11] = Compound I 300 nM, cisplatin 5 μM
[12] = Compound I 110 nM, cisplatin 5 μM
[13] = Compound I 60 nM, cisplatin 5 μM, 48 hrs
[14] = NCI-H460, Compound I 300 nM, cisplatin 1 μM
[15] = Calu 6, Cmpd I 33 nM, Cisplatin 2 μM
[16] = Cisplatin 5 μM, plates incubated for 72 hours
[17] = Cmpd I 600 nM, Cisplatin 10 μM, 48 hrs
[18] = Compound I 330 nM, CPT-11 20 nM
[19] = Compound I 330 nM, CPT-11 20 nM, 48 hrs
[20] = NCI H-460, Cmpd I 300 nM, Etoposide 1 μM
[21] = Cmpd I 300 nM, Carboplatin 5 μM, plates incubated for 72 hours
[22] = NCI-H460, Compound I 100 nM, carboplatin 10 μM
[23] = Carboplatin 50 mg/kg IP, alone or combined, every 14 days × 3 cycles
[24] = Cmpd I 300 nM, 5-FU 5 μM, plates incubated for 72 hours

SMILES: Nc1ccn([C@@H]2O[C@H](CO)[C@@H](O)C2(F)F)c(=O)n1 [Gemcitabine, reference compound]
- % increase of caspase activity relative to untreated controls (HCT-116; [5]): 324%
- % increase of caspase activity relative to untreated controls (NCI-H460; [6]): 1187%

SMILES: Nc1nc2[nH]cc(CCc3ccc(C(=O)N[C@@H](CCC(=O)O)C(=O)O)cc3)c2c(=O)[nH]1 [Pemetrexed, pemetrexed, reference compound]
- % increase of caspase activity relative to untreated controls (HCT-116; [7]): 23%
- % increase of caspase activity relative to untreated controls (A2780; [8]): 0%
- % increase of caspase activity relative to untreated controls (NCI-H460; [9]): 185%
- % increase of caspase activity relative to untreated controls (Calu-6; [10]): 24%

SMILES: N.N.[Cl][Pt][Cl] [cisplatin, reference compound]
- % increase of caspase activity relative to untreated controls (HCT-116; [11]): 36%
- % increase of caspase activity relative to untreated controls (Colo-205; [12]): 8%
- % increase of caspase activity relative to untreated controls (A2780; [13]): 1.5%
- % increase of caspase activity relative to untreated controls (A549; cisplatin 1 μM): 4%
- % increase of caspase activity relative to untreated controls (NCI-H460; [14]): 47%
- % increase of caspase activity relative to untreated controls (Calu-6; [15]): 97%
- % increase of caspase activity relative to untreated controls (AGS; [16]): 147%
- % increase of caspase activity relative to untreated controls (KATO III): 389%
- % increase of caspase activity relative to untreated controls (MKN 45; [17]): 359%
- Tumor Growth Delay Mean ± Standard Error [1]: 5 ± 1.6 days
- Tumor Growth Delay Mean ± Standard Error [2]: 23 ± 10.3 days
- Tumor Growth Delay Mean ± Standard Error [3]: 18 ± 3.5 days

SMILES: COc1cccc2c1C(=O)c1c(O)c3c(c(O)c1C2=O)C[C@@](O)(C(=O)CO)C[C@@H]3O[C@H]1C[C@H](N)[C@H](O)[C@H](C)O1 [Doxorubicin, doxorubicin, reference compound]
- % increase of caspase activity relative to untreated controls (SKOV3): 184%

SMILES: CCc1c2c(nc3ccc(OC(=O)N4CCC(N5CCCCC5)CC4)cc13)-c1cc3c(c(=O)n1C2)COC(=O)[C@]3(O)CC [CPT-11, irinotecan, reference compound]
- % increase of caspase activity relative to untreated controls (HCT-116; [18]): 50%
- % increase of caspase activity relative to untreated controls (Colo-205; Compound I 33 nM, CPT-11 20 nM): 38%
- % increase of caspase activity relative to untreated controls (A2780; [19]): 153%

SMILES: COc1cc([C@@H]2c3cc4c(cc3[C@@H](O[C@@H]3O[C@@H]5CO[C@@H](C)O[C@H]5[C@H](O)[C@H]3O)[C@H]3COC(=O)[C@H]23)OCO4)cc(OC)c1O [Etoposide, etoposide, reference compound]
- % increase of caspase activity relative to untreated controls (NCI-H460; [20]): 251%

SMILES: N.N.O=C([O-])C1(C(=O)[O-])CCC1.[Pt+2] [carboplatin, reference compound]
- % increase of caspase activity relative to untreated controls (A2780; [21]): 78%
- % increase of caspase activity relative to untreated controls (A549; carboplatin 10 μM): 14%
- % increase of caspase activity relative to untreated controls (NCI-H460; [22]): 16%
- Tumor Growth Delay Mean ± Standard Error [4, 23]: 2 ± 2.9 days

SMILES: O=C1NC(=O)C(c2cnc3ccccn23)=C1c1cn2c3c(cc(F)cc13)CN(C(=O)N1CCCCC1)CC2 [Compound I, 7-(2,5-dihydro-4-imidazo[1,2-a]pyridine-3-yl-2,5-dioxo-1H-pyrrol-3-yl)-9-fluoro-1,2,3,4-tetrahydro-2-(1-piperidinyl-carbonyl)-pyrrolo[3,2,1-jk][1,4]benzodiazepine]
- % increase of caspase activity relative to untreated controls (HCT-116; Cmpd I 12 nM, 5-FU 5 μM): 47%
- % increase of caspase activity relative to untreated controls (HCT-116; [5]): 0%
- % increase of caspase activity relative to untreated controls (HCT-116; [7]): 0%
- % increase of caspase activity relative to untreated controls (HCT-116; [11]): 16%
- % increase of caspase activity relative to untreated controls (HCT-116; [18]): 53%
- % increase of caspase activity relative to untreated controls (Colo-205; Compound I 33 nM, CPT-11 20 nM): 45%
- % increase of caspase activity relative to untreated controls (Colo-205; [12]): 12%
- % increase of caspase activity relative to untreated controls (A2780; [21]): 55%
- % increase of caspase activity relative to untreated controls (A2780; [8]): 10%
- % increase of caspase activity relative to untreated controls (A2780; [13]): 0%
- % increase of caspase activity relative to untreated controls (A2780; [19]): 1%
- % increase of caspase activity relative to untreated controls (A549; carboplatin 10 μM): 52%
- % increase of caspase activity relative to untreated controls (A549; cisplatin 1 μM): 80%
- % increase of caspase activity relative to untreated controls (NCI-H460; [20]): 222%
- % increase of caspase activity relative to untreated controls (NCI-H460; [6]): 186%
- % increase of caspase activity relative to untreated controls (NCI-H460; [9]): 38%
- % increase of caspase activity relative to untreated controls (NCI-H460; [22]): 122%
- % increase of caspase activity relative to untreated controls (NCI-H460; [14]): 99%
- % increase of caspase activity relative to untreated controls (Calu-6; [15]): 154%
- % increase of caspase activity relative to untreated controls (Calu-6; [10]): 139%
- % increase of caspase activity relative to untreated controls (SKOV3): 0%
- % increase of caspase activity relative to untreated controls (AGS; 5-FU 3 μM, 48 hrs): 0%
- % increase of caspase activity relative to untreated controls (AGS; [16]): 0%
- % increase of caspase activity relative to untreated controls (KATO III): 48%
- % increase of caspase activity relative to untreated controls (MKN 45; [24]): 105%
- % increase of caspase activity relative to untreated controls (MKN 45; [17]): 162%
- Tumor Growth Delay Mean ± Standard Error [1]: -0.3 ± 1.4 days
- Tumor Growth Delay Mean ± Standard Error [2]: 2 ± 2.2 days
- Tumor Growth Delay Mean ± Standard Error [3]: 10.9 ± 2.2 days
- Tumor Growth Delay Mean ± Standard Error [4, 23]: 3 ± 1.4 days
- Tumor Growth Delay Mean ± Standard Error ([4]; carboplatin 10 mg/kg IP, pemetrexed 300 mg/kg IP, every 14 days for 3 cycles): 1.4 ± 3.8 days

SMILES: O=c1[nH]cc(F)c(=O)[nH]1 [Compound 5-FU, 5-fluorouracil, reference compound]
- % increase of caspase activity relative to untreated controls (HCT-116; Cmpd I 12 nM, 5-FU 5 μM): 55%
- % increase of caspase activity relative to untreated controls (AGS; 5-FU 3 μM, 48 hrs): 133%
- % increase of caspase activity relative to untreated controls (MKN 45; [24]): 415%
